Test results taken from patent US10175228B2, “Method of using transmembrane channel-like protein 6 (TMC6) protein to identify substances affecting salty taste” (priority 2016, dated 2019).

Experiments:
Type in all cases: cell-based
[1] = system: Pongo abelii TMC6 protein; assay: Calcium imaging of CHO-K1 cells expressing the Pongo abelii TMC6 gene; settings: stimulation with high-concentration NaCl solution for 60 sec, 31 cells
Description: (§1) CHO-K1 cells were transfected with Macaca mulatta TMC6-2A-YC260TM in pcDNA3.1(−), Pongo abelii TMC6-2A-YC260TM in pcDNA3.1(−), Mouse-Aotus nancymaae chimera TMC6 2A-YC260TM in pcDNA3.1(−), or YC2.60-pcDNA, to prepare TMC6-expressing cells (cells expressing the Macaca mulatta TMC6 gene, the Pongo abelii TMC6 gene, or the mouse/Aotus nancymaae chimeric TMC6 gene, in combination with the YC2.60 gene) and control cells (cells expressing the YC2.60 gene). The prepared cells were stimulated, and activation of the cells was measured. The procedure was as follows.
(§2) First, a plurality of sterile cover glasses (18×32 mm, Matsunami Glass) were placed at the bottom of a culture dish having a diameter of 100 mm so as not to be overlapped to each other. CHO-K1 cells (ATCC) were inoculated thereto while adjusting the number of the cells to obtain 60% confluence, and cultured for 24 hr. Then, medium exchange was carried out. As the medium, 12 mL of Ham's F-12K (Kaighn's) (Life Technologies) containing 10% fetal bovine serum (Life Technologies) was used. […]
(§3) Change of the intracellular calcium concentration was measured and analyzed with analysis software equipped with FV1200. An average YFP/CFP value of all the cell of which the YFP/CFP value was changed by stimulation with the ATP stimulation solution was calculated at each measurement. […]

[2] = system: Macaca mulatta TMC6 protein; assay: Calcium imaging of CHO-K1 cells expressing the Macaca mulatta TMC6 gene; settings: stimulation with high-concentration NaCl solution for 60 sec, 28 cells
Description: as §1, §2, §3

[3] = system: chimeric TMC6 protein of mouse and Aotus nancymaae; assay: Calcium imaging of CHO-K1 cells expressing the mouse/Aotus nancymaae chimeric TMC6 gene; settings: stimulation with high-concentration NaCl solution for 60 sec, 21 cells
Description: The nucleotide sequence of the CDS of the chimeric TMC6 gene cloned into Mouse-Aotus nancymaae chimera TMC6 2A-YC260TM in pcDNA3.1(−) was confirmed to consist of an upstream part identical to positions 1 to 45 of the nucleotide sequence of mRNA of the mouse TMC6 gene (NM_145439) and a downstream part identical to positions 52 to 2421 of the nucleotide sequence of mRNA of the Aotus nancymaae TMC6 gene (XM 012453598) registered in NCBI by sequencing analysis. The chimeric TMC6 gene encodes a chimeric TMC6 protein consisting of the amino acid sequence of positions 1 to 15 of the mouse TMC6 protein (SEQ ID NO: 26) and the amino acid sequence of positions 18 to 807 of the Aotus nancymaae TMC6 protein (SEQ ID NO: 1). The nucleotide sequence of Mouse-Aotus nancymaae chimera TMC6 2A-YC260TM in pcDNA3.1(−) is shown as SEQ ID NO: 63. […]
CHO-K1 cells were transfected with Macaca mulatta TMC6-2A-YC260TM in pcDNA3.1(−), Pongo abelii TMC6-2A-YC260TM in pcDNA3.1(−), Mouse-Aotus nancymaae chimera TMC6 2A-YC260TM in pcDNA3.1(−), or YC2.60-pcDNA, to prepare TMC6-expressing cells (cells expressing the Macaca mulatta TMC6 gene, the Pongo abelii TMC6 gene, or the mouse/Aotus nancymaae chimeric TMC6 gene, in combination with the YC2.60 gene) and control cells (cells expressing the YC2.60 gene). The prepared cells were stimulated, and activation of the cells was measured. […]

Measured: change of average YFP/CFP value (intracellular calcium concentration)

[Cl-].[Na+] [NaCl, sodium chloride]
increase: all assays above
